Data: the supplement of paper PMC10307832

What was measured:
Test in all cases: relative viability (nuclei count vs DMSO), 5 days (fraction); higher = more cells survive
A-427 = system: A-427
In short: (§1)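 After 5 days of treatment, lung cancer cells in 1536-well plates were fixed and stained in a single step (final 0.05% Triton X-100, 1% formaldehyde, 1 ug/ml Hoechst) and their nuclei counted on 4× images. Treatment had been applied by pin tool the day after seeding as one drug alone or as a fixed anchor-drug dose with five library-drug doses (not always all listed) in √10 steps. Relative viability is the nuclei count of treated wells divided by that of vehicle wells, and values are medians of duplicate plates.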

COR-L 105 = system: COR-L 105
In short: as §1

ChaGo-K-1 = system: ChaGo-K-1
In short: as §1

EKVX = system: EKVX
In short: as §1

EMC-BAC-2 = system: EMC-BAC-2
In short: as §1

H3255 = system: H3255
In short: as §1

HCC-366 = system: HCC-366
In short: as §1

LK-2 = system: LK-2
In short: as §1

LOU-NH91 = system: LOU-NH91
In short: as §1

NCI-H1666 = system: NCI-H1666
In short: as §1

NCI-H1734 = system: NCI-H1734
In short: as §1

NCI-H1755 = system: NCI-H1755
In short: as §1

NCI-H1975 = system: NCI-H1975
In short: as §1

NCI-H2170 = system: NCI-H2170
In short: as §1

NCI-H23 = system: NCI-H23
In short: as §1

NCI-H441 = system: NCI-H441
In short: as §1

NCI-H520 = system: NCI-H520
In short: as §1

NCI-H596 = system: NCI-H596
In short: as §1

PC-3 [JPC-3] = system: PC-3 [JPC-3]
In short: as §1

SK-MES-1 = system: SK-MES-1
In short: as §1

SW 900 = system: SW 900
In short: as §1

`O=c1cc(-c2cccc3c2Sc2ccccc2S3)oc(N2CCOCC2)c1` + CC(=O)Nc1cccc(-n2c(=O)n(C3CC3)c(=O)c3c(Nc4ccc(I)cc4F)n(C)c(=O)c(C)c32)c1 [Trametinib] (partner 0.02 µM) showed a relative viability (A-427; first compound 0.08 µM) of 0.718, a relative viability (A-427; first compound 0.253 µM) of 0.867 and a relative viability (A-427; first compound 0.8 µM) of 0.735. For the same compound, the relative viability (A-427; first compound 2.53 µM) was 0.709, the relative viability (A-427; first compound 8 µM) was 0.747 and the relative viability (COR-L 105; first compound 0.08 µM) was 0.397. The relative viability (COR-L 105; first compound 0.253 µM) was 0.359, the relative viability (COR-L 105; first compound 0.8 µM) was 0.383 and the relative viability (COR-L 105; first compound 2.53 µM) was 0.434. The relative viability (COR-L 105; first compound 8 µM) was 0.461, the relative viability (ChaGo-K-1; first compound 0.08 µM) was 0.862 and the relative viability (ChaGo-K-1; first compound 0.253 µM) was 0.935. It also gave a relative viability (ChaGo-K-1; first compound 0.8 µM) of 0.894, a relative viability (ChaGo-K-1; first compound 2.53 µM) of 0.908 and a relative viability (ChaGo-K-1; first compound 8 µM) of 0.955. For the same compound, the relative viability (EKVX; first compound 0.08 µM) was 0.554, the relative viability (EKVX; first compound 0.253 µM) was 0.332 and the relative viability (EKVX; first compound 0.8 µM) was 0.296. For the same compound, the relative viability (EKVX; first compound 2.53 µM) was 0.332, the relative viability (EKVX; first compound 8 µM) was 0.336 and the relative viability (EMC-BAC-2; first compound 0.08 µM) was 0.804. It also gave a relative viability (EMC-BAC-2; first compound 0.253 µM) of 1.04, a relative viability (EMC-BAC-2; first compound 0.8 µM) of 0.842 and a relative viability (EMC-BAC-2; first compound 2.53 µM) of 0.908. It also gave a relative viability (EMC-BAC-2; first compound 8 µM) of 0.895, a relative viability (H3255; first compound 0.08 µM) of 0.725 and a relative viability (H3255; first compound 0.253 µM) of 0.588. It also gave a relative viability (H3255; first compound 0.8 µM) of 0.681, a relative viability (H3255; first compound 2.53 µM) of 0.543 and a relative viability (H3255; first compound 8 µM) of 0.561. For the same compound, the relative viability (HCC-366; first compound 0.08 µM) was 0.31, the relative viability (HCC-366; first compound 0.253 µM) was 0.474 and the relative viability (HCC-366; first compound 0.8 µM) was 0.339. It also gave a relative viability (HCC-366; first compound 2.53 µM) of 0.33, a relative viability (HCC-366; first compound 8 µM) of 0.284 and a relative viability (LK-2; first compound 0.08 µM) of 0.874. The relative viability (LK-2; first compound 0.253 µM) was 0.852, the relative viability (LK-2; first compound 0.8 µM) was 0.755 and the relative viability (LK-2; first compound 2.53 µM) was 0.712. For the same compound, the relative viability (LK-2; first compound 8 µM) was 1.03, the relative viability (LOU-NH91; first compound 0.08 µM) was 0.772 and the relative viability (LOU-NH91; first compound 0.253 µM) was 0.884. It also gave a relative viability (LOU-NH91; first compound 0.8 µM) of 0.732, a relative viability (LOU-NH91; first compound 2.53 µM) of 0.719 and a relative viability (LOU-NH91; first compound 8 µM) of 0.777. For the same compound, the relative viability (NCI-H1666; first compound 0.08 µM) was 0.828, the relative viability (NCI-H1666; first compound 0.253 µM) was 0.916 and the relative viability (NCI-H1666; first compound 0.8 µM) was 0.864. For the same compound, the relative viability (NCI-H1666; first compound 2.53 µM) was 0.89, the relative viability (NCI-H1666; first compound 8 µM) was 0.793 and the relative viability (NCI-H1734; first compound 0.08 µM) was 0.656. The relative viability (NCI-H1734; first compound 0.253 µM) was 0.72, the relative viability (NCI-H1734; first compound 0.8 µM) was 0.69 and the relative viability (NCI-H1734; first compound 8 µM) was 0.697. It also gave a relative viability (NCI-H1755; first compound 0.08 µM) of 0.739, a relative viability (NCI-H1755; first compound 0.253 µM) of 0.867 and a relative viability (NCI-H1755; first compound 0.8 µM) of 0.732. It also gave a relative viability (NCI-H1755; first compound 2.53 µM) of 0.789, a relative viability (NCI-H1755; first compound 8 µM) of 0.787 and a relative viability (NCI-H1975; first compound 0.08 µM) of 0.323. It also gave a relative viability (NCI-H1975; first compound 0.253 µM) of 0.295, a relative viability (NCI-H1975; first compound 0.8 µM) of 0.327 and a relative viability (NCI-H1975; first compound 2.53 µM) of 0.347. The relative viability (NCI-H1975; first compound 8 µM) was 0.39, the relative viability (NCI-H2170; first compound 0.08 µM) was 0.996 and the relative viability (NCI-H2170; first compound 0.253 µM) was 1.08. The relative viability (NCI-H2170; first compound 0.8 µM) was 1.06, the relative viability (NCI-H2170; first compound 2.53 µM) was 0.816 and the relative viability (NCI-H2170; first compound 8 µM) was 1.01. For the same compound, the relative viability (NCI-H23; first compound 0.08 µM) was 0.334, the relative viability (NCI-H23; first compound 0.253 µM) was 0.418 and the relative viability (NCI-H23; first compound 0.8 µM) was 0.349. For the same compound, the relative viability (NCI-H23; first compound 2.53 µM) was 0.313, the relative viability (NCI-H23; first compound 8 µM) was 0.317 and the relative viability (NCI-H441; first compound 0.08 µM) was 0.34. For the same compound, the relative viability (NCI-H441; first compound 0.253 µM) was 0.527, the relative viability (NCI-H441; first compound 0.8 µM) was 0.55 and the relative viability (NCI-H441; first compound 2.53 µM) was 0.465. For the same compound, the relative viability (NCI-H441; first compound 8 µM) was 0.424, the relative viability (NCI-H520; first compound 0.08 µM) was 0.566 and the relative viability (NCI-H520; first compound 0.253 µM) was 0.741. It also gave a relative viability (NCI-H520; first compound 0.8 µM) of 0.78, a relative viability (NCI-H520; first compound 2.53 µM) of 0.776 and a relative viability (NCI-H520; first compound 8 µM) of 0.637. It also gave a relative viability (NCI-H596; first compound 0.08 µM) of 0.819, a relative viability (NCI-H596; first compound 0.253 µM) of 0.925 and a relative viability (NCI-H596; first compound 0.8 µM) of 0.823. The relative viability (NCI-H596; first compound 2.53 µM) was 0.934, the relative viability (NCI-H596; first compound 8 µM) was 0.801 and the relative viability (PC-3 [JPC-3]; first compound 0.08 µM) was 0.542. The relative viability (PC-3 [JPC-3]; first compound 0.253 µM) was 0.732, the relative viability (PC-3 [JPC-3]; first compound 0.8 µM) was 0.53 and the relative viability (PC-3 [JPC-3]; first compound 2.53 µM) was 0.617. It also gave a relative viability (PC-3 [JPC-3]; first compound 8 µM) of 0.673, a relative viability (SK-MES-1; first compound 0.08 µM) of 0.543 and a relative viability (SK-MES-1; first compound 0.253 µM) of 0.579. The relative viability (SK-MES-1; first compound 0.8 µM) was 0.448, the relative viability (SK-MES-1; first compound 2.53 µM) was 0.481 and the relative viability (SK-MES-1; first compound 8 µM) was 0.379. The relative viability (SW 900; first compound 0.253 µM) was 0.93, the relative viability (SW 900; first compound 0.8 µM) was 0.777 and the relative viability (SW 900; first compound 2.53 µM) was 0.814. For the same compound, the relative viability (SW 900; first compound 8 µM) was 0.816.
